Where a name gives a salt, the structure may show the parent alone.

This experiment concerns the target T1, SGK1 (Homo sapiens, UniProt O00141).
T1 sequence (O00141 1-431): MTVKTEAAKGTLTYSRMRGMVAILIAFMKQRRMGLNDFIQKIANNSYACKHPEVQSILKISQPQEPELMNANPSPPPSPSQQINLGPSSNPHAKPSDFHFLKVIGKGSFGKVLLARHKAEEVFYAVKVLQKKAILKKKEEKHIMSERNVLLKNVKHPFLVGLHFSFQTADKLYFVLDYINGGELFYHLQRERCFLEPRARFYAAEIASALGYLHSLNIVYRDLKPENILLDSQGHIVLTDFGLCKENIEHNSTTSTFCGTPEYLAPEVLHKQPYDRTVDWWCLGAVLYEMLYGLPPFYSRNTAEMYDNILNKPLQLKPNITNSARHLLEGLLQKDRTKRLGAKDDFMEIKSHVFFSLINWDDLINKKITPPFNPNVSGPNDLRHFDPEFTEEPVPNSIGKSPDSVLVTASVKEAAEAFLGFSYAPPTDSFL
In words: SGK1 inhibition Assay B (Echo mass spectrometry of phosphorylated peptide product). Format: biochemical. The settings on record: 60 min at room temperature.
A word on the IC50: it is the concentration that gives 50% inhibition. A low value points to higher potency. With `CC(=O)N1CC=C(c2cc(N3CCC[C@@H](NC(=O)c4nc(OC5CCNCC5)c(C)s4)C3)c3c(N)ncnn23)C1` [Example 957, (R)—N-(1-(7-(1-acetyl-2,5-dihydro-1H-pyrrol-3-yl)-4-aminopyrrolo[2,1-f][1,2,4]triazin-5-yl)piperidin-3-yl)-5-methyl-4-(piperidin-4-yloxy)thiazole-2-carboxamide], the concentration for half-maximal inhibition (IC50) was determined as 0.6 nM. Then `CCC1=C(c2cc(N3CCC[C@@H](NC(=O)c4sc(C)nc4OC4CCC(N[C@@H](C)COC)CC4)C3)c3c(N)ncnn23)COC1=O` (single isomer, unassigned) [Example 1023], with 0.8 nM. As to `Cc1nc(O[C@H]2CC[C@@](C)(N)CC2)c(C(=O)N[C@@H]2CCCN(c3cc(-c4ccc(-n5cnnn5)c(F)c4)n4ncnc(N)c34)C2)s1` [Example 934, 4-(((1s,4S)-4-Amino-4-methylcyclohexyl)oxy)-N—((R)-1-(4-amino-7-(3-fluoro-4-(1H-tetrazol-1-yl)phenyl)pyrrolo[2,1-f][1,2,4]triazin-5-yl)piperidin-3-yl)-2-methylthiazole-5-carboxamide], it took 0.5 nM to reach half-maximal inhibition (IC50). As for `CCOC1=C(C(=O)N[C@@H]2CCCN(c3cc(C4=CCN(C(C)=O)C4)n4ncnc(N)c34)C2)CN(c2ccc(OC)cc2)C1=O` [Example 755, (R)-N-(1-(7-(1-acetyl-2,5-dihydro-1H-pyrrol-3-yl)-4-aminopyrrolo[2,1-f][1,2,4]triazin-5-yl)piperidin-3-yl)-4-ethoxy-1-(4-methoxyphenyl)-5-oxo-2,5-dihydro-1H-pyrrole-3-carboxamide], the IC50 was 21 nM. For `CC(=O)N1CC=C(c2cc(N3CCC[C@@H](NC(=O)c4sc(Cl)cc4OCC45CCCN4CCC5)C3)c3c(N)ncnn23)C1` [Example 917, N-[(3R)-1-[7-(1-acetyl-2,5-dihydro-1H-pyrrol-3-yl)-4-aminopyrrolo[2,1-f][1,2,4]triazin-5-yl]piperidin-3-yl]-5-chloro-3-[(hexahydro-1H-pyrrolizin-7a-yl)methoxy]thiophene-2-carboxamide] the value was 3 nM; for `Cc1nc(OC2CCC(N3CCC3)CC2)c(C(=O)N[C@@H]2CCCN(c3cc(C4=CC(=O)OC4)n4ncnc(N)c34)C2)s1` (stereo partly drawn) [Example 998, (R)-N-(1-(4-amino-7-(5-oxo-2,5-dihydrofuran-3-y1)pyrrolo[2,1-f] [1,2,4]triazin-5-yl)piperidin-3-y1)-4-((4-(azetidin-1-yl)cyclohexyl)oxy)-2-methylthiazole-5-carboxamide], 1.1 nM; for `CN1[C@@H]2CC[C@H]1C[C@H](Oc1cc(Cl)sc1C(=O)N[C@@H]1C[C@@H](F)CN(c3cc(-c4ccc(-n5cnnn5)c(F)c4)n4ncnc(N)c34)C1)C2` [Example 925, N-((3R,5R)-1-(4-amino-7-(3-fluoro-4-(1H-tetrazol-1-yl)phenyl)pyrrolo[2,1-f][1,2,4]triazin-5-yl)-5-fluoropiperidin-3-yl)-5-chloro-3-(((1R,3s,5S)-8-methyl-8-azabicyclo[3.2.1]octan-3-yl)oxy)thiophene-2-carboxamide, TFA salt], 0.4 nM. For `Cc1nc(OC2COC3(CCNCC3)C2)c(C(=O)N[C@@H]2CCCN(c3cc(-c4ccc(C(N)=O)c(F)c4)n4ncnc(N)c34)C2)s1` (single isomer, unassigned) [Example 954] the value was 4 nM. `CC[C@H](CO)N[C@H]1CC[C@@H](Oc2nc(C)sc2C(=O)N[C@@H]2CCCN(c3cc(C4=C(C)C(=O)OC4)n4ncnc(N)c34)C2)CC1` [Example 1010, N-((R)-1-(4-amino-7-(4-methyl-5-oxo-2,5~dihydrofuran~3-yl)pyrrolo[2,1-f][1,2,4]triazin-5-y1)piperidin-3-y1)-4-((4-(((R)-1-hydroxybutan-2-yl)amino)cyclohexyl)oxy)-2-methylthiazole-5-carboxamide] gave an IC50 of 2.1 nM. Compound `CN(C)C1CC2(CC(Oc3cc(Cl)sc3C(=O)N[C@@H]3CCCN(c4cc(-c5ccc(C(N)=O)c(F)c5)n5ncnc(N)c45)C3)C2)C1` (stereo partly drawn) [Example 944, (R)—N-(1-(4-Amino-7-(4-carbamoyl-3-fluorophenyl)pyrrolo[2,1-f][1,2,4]triazin-5-yl)piperidin-3-yl)-5-chloro-3-((6-(dimethylamino)spiro[3.3]heptan-2-yl)oxy)thiophene-2-carboxamide] had a half-maximal inhibitory concentration (IC50) of 1 nM. `CN1CCN(c2cccc(C(=O)N[C@@H]3CCCN(c4cc(-c5cnn(C(F)F)c5)n5ncnc(N)c45)C3)n2)CC1` [Example 807, (R)-N-(1-(4-amino-7-(1-(difluoromethyl)-1H-pyrazol-4-yl)pyrrolo[2,1-f][1,2,4]triazin-5-yl)piperidin-3-yl)-6-(4-methylpiperazin-1-yl)picolinamide, TFA salt] gave an IC50 of 41 nM.

In turn, `COC(=O)N1CC=C(c2cc(N3CCC[C@@H](NC(=O)c4sc(C)nc4OC4CCN(C)CC4)C3)c3c(N)ncnn23)C1` [Example 360, Methyl (R)-3-(4-amino-5-(3-(2-methyl-4-((1-methylpiperidin-4-yl)oxy)thiazole-5-carboxamido)piperidin-1-yl)pyrrolo[2,1-f][1,2,4]triazin-7-yl)-2,5-dihydro-1H-pyrrole-1-carboxylate] came in with an IC50 of 14 nM. `N#Cc1ccc(-c2cc(N3CCC[C@@H](NC(=O)c4sc(Cl)cc4O[C@@H]4CN5CCC4CC5)C3)c3c(N)ncnn23)cn1` [Example 950, N—((R)-1-(4-Amino-7-(6-cyanopyridin-3-yl)pyrrolo[2,1-f][1,2,4]triazin-5-yl)piperidin-3-yl)-5-chloro-3-(((S)-quinuclidin-3-yl)oxy)thiophene-2-carboxamide] gave a concentration for half-maximal inhibition (IC50) of 0.6 nM. For `CC(=O)N1CC=C(c2cc(N3CCC[C@@H](NC(=O)c4sc(Cl)cc4OC4CC5CC(C4)N(C)C5)C3)c3c(N)ncnn23)C1` (single isomer, unassigned) [Example 952] the value was 7 nM; for `CC(=O)N1CC=C(c2cc(N3CCC[C@@H](NC(=O)c4sc(Cl)cc4OC4CCCN(C(C)C)CC4)C3)c3c(N)ncnn23)C1` (stereo partly drawn) [Example 987], 1 nM; for `COc1cc(-c2cc(N3CCC[C@@H](NC(=O)c4ccnc(N5CCN(C)CC5)n4)C3)c3c(N)ncnn23)ccc1-n1cnnn1` [Example 855, (R)-N-(1-(4-amino-7-(3-methoxy-4-(1H-tetrazol-1-yl)phenyl)pyrrolo[2,1-f][1,2,4]triazin-5-yl)piperidin-3-yl)-2-(4-methylpiperazin-1-yl)pyrimidine-4-carboxamide], 14 nM. Regarding `Nc1ncnn2c(-c3ccc(-n4cnnn4)c(F)c3)cc(N3CCC[C@@H](NC(=O)c4sc(Cl)cc4OC4CCC(O)CC4)C3)c12` (single isomer, unassigned; isomer 2) [Example 935], 0.2 nM corresponded to half-maximal inhibition (IC50).

Turning to `CC1=C(c2cc(N3CCCC(NC(=O)c4sc(C)nc4OC4CCC(N5CCC5)CC4)C3)c3c(N)ncnn23)COC1=O` [Example 1006, (R)-N-(1-(4-amino-7-(4-methyl-5-oxo-2,5-dihydrofuran-3-yl)pyrrolo[2,1-f][1,2,4]triazin-5-y1)piperidin-3-y1)-4-((4-(azetidin-1-yl)cyclohexyl)oxy)-2-methylthiazole-5-carboxamide], the IC50 was found to be 0.8 nM. For `Cc1nc(O[C@H]2CC[C@@H](NC(C)C)C2)c(C(=O)N[C@@H]2CCCN(c3cc(-c4ccc(C(N)=O)c(F)c4)n4ncnc(N)c34)C2)s1` [Example 940, N—((R)-1-(4-Amino-7-(4-carbamoyl-3-fluorophenyl)pyrrolo[2,1-f][1,2,4]triazin-5-yl)piperidin-3-yl)-4-(((1S,3R)-3-(isopropylamino)cyclopentyl)oxy)-2-methylthiazole-5-carboxamide] the value was 3 nM; for `CCOC1=C(C(=O)N[C@@H]2CCCN(c3cc(C4=CCN(C(C)=O)C4)n4ncnc(N)c34)C2)CN(C2(C(F)(F)F)CC2)C1=O` [Example 757, (R)-N-(1-(7-(1-acetyl-2,5-dihydro-1H-pyrrol-3-yl)-4-aminopyrrolo[2,1-f][1,2,4]triazin-5-yl)piperidin-3-yl)-4-ethoxy-5-oxo-1-(1-(trifluoromethyl)cyclopro-pyl)-2,5-dihydro-1H-pyrrole-3-carboxamide], 89 nM; for `CCC1=C(c2cc(N3CCC[C@@H](NC(=O)c4sc(C)nc4O[C@H]4CC[C@@H](NC(C)CO)CC4)C3)c3c(N)ncnn23)COC1=O` (single isomer, unassigned) [Example 1020], 1.1 nM. In turn, `Cc1nnnn1-c1ccc(-c2cc(N3CCC[C@@H](NC(=O)c4cccc(N5CC6(C5)CN(C(C)C)C6)n4)C3)c3c(N)ncnn23)cc1` [Example 829, (R)-N-(1-(4-amino-7-(4-(5-methyl-1H-tetrazol-1-yl)phenyl)pyrrolo[2,1-f][1,2,4]triazin-5-yl)piperidin-3-yl)-6-(6-isopropyl-2,6-diazaspiro[3.3]heptan-2-yl)picolinamide] yielded an IC50 of 2 nM. Then `CN1CCN(c2nccc(C(=O)N[C@@H]3CCCN(c4cc(-c5cnc(-n6cnnn6)nc5)n5ncnc(N)c45)C3)n2)CC1` [Example 856, (R)-N-(1-(7-(2-(1H-tetrazol-1-yl)pyrimidin-5-yl)-4-aminopyrrolo[2,1-f][1,2,4]triazin-5-yl)piperidin-3-yl)-2-(4-methylpiperazin-1-yl)pyrimidine-4-carboxamide], with 16 nM; and `Cc1nc(OCCCN(C)C)c(C(=O)N[C@@H]2CCCN(c3cc(-c4cnc(-n5cnnn5)c(F)c4)n4ncnc(N)c34)C2)s1` [Example 919, N-[(3R)-1-{4-amino-7-[5-fluoro-6-(1H-1,2,3,4-tetrazol-1-yl)pyridin-3-yl]pyrrolo[2,1-f][1,2,4]triazin-5-yl}piperidin-3-yl]-4-[3-(dimethylamino)propoxy]-2-methyl-1,3-thiazole-5-carboxamide], with 5 nM.

For the origin of these results see patent publication US20260250290A1 (BRISTOL-MYERS SQUIBB COMPANY, priority 2023, published 2026).
